Reference: patent US6696495B2, “Treatment of disorders secondary to organic impairments” (Snowden Pharmaceuticals, LLC, priority 1998, dated 2004)
Where two headings read alike, the source gives them in different places.

Assays:
[1] = system: Sick Building Syndrome (SBS); assay: Case history 20; format: in vivo, human; conditions: sibutramine 5 mg. t.i.d. Person
Source text: 20. Sick Building Syndrome (SBS)
This person began to note an increasing fatigue, poor concentration, rash, and wheezing which they related to exposure to unknown foreigns in the large building in which they worked. They also noted that more than 40 other employees had similar symptoms. […] They were then forced to leave their job in this building with a gradual relief of all symptoms over the next several weeks.

[2] = system: Severe Post-Traumatic Stress Reaction
Procedure: Finally, this patient was taken off of fluoxetine 20 mg when sibutramine treatment was initiated.

[3] = system: Sexual Function, ADD, and Rage Outbursts; assay: Case history 3, Sibutramine Patient No. 100; format: in vivo, human; conditions: sibutramine 10 mg twice a day
[4] = system: Severe Atypical Psychosis; assay: Case history 1, Sibutramine Patient No. 97; format: in vivo, human; conditions: sibutramine 10 mg orally three times a day, added to carbamazepine, quetiapine, valproic acid; person
[5] = system: Reflex Sympathetic Dystrophy Syndrome (RSDS); Complex Regional Pain Syndrome (CRPS); assay: Case history 27; format: in vivo, human
[6] = system: Violence and Self-Laceration; assay: Case history 2, Sibutramine Patient No. 3; format: in vivo, human
Procedure: 2. Violence and Self-Laceration (Problem No. 1) Sibutramine Patient No. 3
They were started on sibutramine 10 mg orally every morning for their violence, self-abuse and obesity.

[7] = system: Non-Tourette's tics, obsessive-compulsive rituals, and attention deficit hyperactive disorder (ADHD)
[8] = Overall clinical observations in the patients treated with sibutramine; format: in vivo, human
Source text: The term sibutramine as used herein means compounds of sibutramine hydrochloride monohydrate, more specifically N,N-dimethyl-1-[1-(4-chlorophenyl)cyclobutyl]-3-methylbutylamine hydrochloride preferably in its monohydrate form, and enantiomers and analogues thereof, as described in U.S. Pat. Nos. 4,746,680, 4,929,629 and 5,436,272. Sibutramine is believed to inhibit reuptake of norepinephrine, serotonin and dopamine thereby intensifying their effects in the brain. Sibutramine is commercially available as MERIDIA®, Knoll Pharmaceutical Company, Mount Olive, N.J. Capsules are presently available with discrete dosages of 5, 10 and 15 mg for oral administration. The sibutramine is administered in a pharmaceutically active dose. The preferred dosage is about 5 mg three times a day but there is variation between patients for the best dose. It is believed that the cytochrome P450 system differs in individuals and the dose must be determined empirically in each patient. The effect of the cytochrome P450 system on metabolism of psychotropic drugs is discussed in “Intercom: The Experts Converse”, published by The Journal of Clinical Psychiatry, November 1995. […] It is possible that higher or lower doses can be used depending upon each individual. Therefore, more flexibility in available dosage is needed. Furthermore, means of administration such as injection, rectal suppository, or transdermal patches may be utilized. Finally, a long-acting slow-release means such as oral tablet or capsule would be the preferred route in view of the rapid metabolism noted (5 hour duration of action usually) in most of the patients.
Although the use of sibutramine has been described for the treatment of conditions such as obesity, depression, diabetic hyperglycemia, hyperlipidemia, senile dementia and related conditions, and Parkinson's disease, it has been discovered that sibutramine can be successfully used in treating other problems unrelated to these conditions. […] For example, patients with ADD previously treated with stimulants found it easier to eat when treated with sibutramine and gained weight. […] It was generally necessary to continue anti-depressant therapy along with the sibutramine therapy.
Above and beyond the known effects of sibutramine on serotonin, dopamine and norepinephrine activation, there is believed to be an effect of this medication on the endorphic opiate neurotransmitter system which is evident in the patients who have been relieved of pain, rage, anger, self-mutilation and particularly addiction to heroin. […] It would appear that sibutramine activates endorphins or, at the very least, modifies the endorphinergic opioid systems to promote serenity and lack of pain and stress, and to reduce craving for heroin. Such a mechanism which was previously unsuspected may have also contributed to the therapeutic effects of sibutramine herein described for PTSD, asocial behavior and fibromyalgic pain which have not been helped by serotonin, dopamine and norepinephrine potentiators. This is in contradistinction to the therapeutic effects of sibutramine on ADHD, chronic fatigue, and the symptoms of Tourette's and non-Tourette's diseases. Finally, a differentiation between the serotonin, dopamine and norepinephrine potentiation versus the opiate-like therapeutic effects of sibutramine may be made in terms of duration of action, whereas the serotonin, dopamine, norepinephrine agonist effects lasted in most patients for only 4-6 hours (therefore requiring tid dosage), the opiate effects appear to last all day and require only a single AM dosage.
These benefits were lost rapidly when either the patient was taken off sibutramine or when steroids, such as cortisone were concomitantly administered.

[9] = system: ADHD Refractory to Other Treatments; format: in vivo, human; conditions: sibutramine 10 mg every morning by mouth; person
Procedure: 16. ADHD Refractory to Other Treatments (Problem No. 6) Sibutramine Patient No. 16
The amphetamines made their nervous, jittery, and unable to sleep. […] They were started on sibutramine 10 mg every morning by mouth. […] After the first month, their dose was changed to 5 mg three times daily due to a five hour duration of effects.

[10] = system: Dementia, Alzheimer's-Type; assay: Case history 24; format: in vivo, human
Procedure: 24. The Symptoms Due to Dementia, Alzheimer's-Type
person one was diagnosed with Dementia. The symptoms they suffered from included memory loss and severe confusion. They tried a variety of treatments to relieve their symptoms including choldine esterase inhibitors, antidepressants, Ritilin, and aterol. […] They were then tested off of sibutramine. […] They began to suffer from a lowered I.Q. and their memory deteriorated.

Compound: CC(C)CC(N(C)C)C1(c2ccc(Cl)cc2)CCC1.Cl (stereo not shown) [sibutramine, N,N-dimethyl-1-[1-(4-chlorophenyl)cyclobutyl]-3-methylbutylamine hydrochloride]
- cognitive, fatigue and allergic symptoms [1]: rapid relief of the cognitive and fatigue symptoms, but no relief from the allergic symptomatology
- depression ([2]; human, in vivo): became severely depressed despite the relief from PTSD
- PTSD symptoms and sedation at lower dosage ([2]; less than 1 mg once a day): provided relief again from their PTSD symptoms but without the sedation
- side effects ([2]; one-half of the smallest capsule (5 mg), deficiency in P-450 cytochrome system enzymes): produced drowsiness, sugar craving, and weight gain
- PTSD reaction to thunder ([2]; sibutramine 10 mg in the morning, person): completely oblivious of their former psychotic fear of thunder
- symptoms after sibutramine was stopped ([2]; stopped after one and a half months): rapid return of the fear of thunder, sound and light sensitivity, exaggerated startle reflex, headaches, and nightmares of life and death situations
- concentration and anger outbursts [3]: able to concentrate better and had fewer and less severe anger outbursts
- sexual drive and interest ([3]; person): an increase in their sexual drive and interest
- hallucinations, confusion, paranoia, and anxiety [4]: marked decrease in hallucinations, confusion, paranoia, and anxiety
- time to pain relief ([5]; 15 mg capsule of sibutramine, child): ≤ 45 min
- toe and function ([5]; 15 mg once a day, within 2 weeks): their toe became normal, and normal function was regained
- pain and symptoms after restart ([5]; back on 15 mg once a day): their pain level decreased significantly within one hour and their symptoms disappeared
- foot pain ([5]; first 15 mg capsule): dramatically better, completely relieved of pain
- symptoms off sibutramine ([5]; taken off for one day): all the previous symptoms reappeared
- energy, seizures, violence and self-abuse ([6]; sibutramine 10 mg orally every): gained new energy, had fewer seizures, and was no longer violent or self-abusive
- time to response ([6]; sibutramine 10 mg orally every morning): less than a week
- wear-off of effects after administration ([6]; single morning dose 10 mg): 5 to 6 h
- tics and OCD symptoms ([7]; sibutramine 5 mg tid, child): stopped both the tics and the OCD symptoms, but only for a few hours
- effect of missing a single dose ([7]; sibutramine 10 mg tid): the vocal and motor tics return immediately
- sleep and appetite ([7]; sibutramine 10 mg tid): Sleep and appetite were not affected
- tics and OCD symptoms ([7]; sibutramine 10 mg tid): free of symptoms throughout the day
- concentration at school ([7]; sibutramine 10 mg tid, versus dextroamphetamine, methylphenidate, pemoline): better than with any of the analeptics
- highest dose ([8]; 15 mg 3 times daily): 45 mg
- neurogenesis ([8]; believed, evidenced by increase in the hippocampus, enhanced mental and motor skills): induced neurogenesis
- lowest effective dose ([8]; human, in vivo): 0.25 mg daily
- onset of improvement ([8]; human, in vivo): alleviated within minutes or hours of treatment
- duration of serotonin, dopamine, norepinephrine agonist effects ([8]; most patients): 4 to 6 h
- depression ([8]; patients removed from anti-depressant medication): became depressed when removed from the anti-depressant medication and treated with sibutramine alone
- symptoms of Post Traumatic Stress ([8]; patients with Post Traumatic Stress): relieved the symptoms of Post Traumatic Stress
- duration of opiate effects ([8]; single AM dosage): last all day
- duration of action ([8]; usually, in most of the patients): 5 h
- effect on ADHD [9]: a calming and an alerting effect
- memory loss and severe confusion ([10]; sibutramine 15 mg once a day, person one): their symptoms quickly dissipated
- symptoms off sibutramine ([10]; taken off sibutramine): their symptoms reappeared
